Experimental data from patent US20060088545A1, “Use of inhibitors of the protease of the human immunodeficiency virus (hiv) to block cell migration and/or invasion, tissue infiltration and oedema for the therary of diseases associated therewith” (priority 2001, published 2006).
Read-outs that look alike come from different tables or passages of the source.

Key:
[1] = system: primary macrovascular (umbilical vein) endothelial cells (HUVEC); experiment: Proliferation assay of HUVEC, basal or bFGF-induced; format: cell-based, human; details: for basal or bFGF-induced proliferation (number of cells): 0.1, 1 or 10 μM, 5 days, bFGF 10 ng/ml
Procedure: Human endothelial cells from the umbilical vein (HUVEC, Blo-Whittaker, Verviers, Belgium) were plated in triplicate (1.5×10^4 cells/well) in plates of 12 wells previously covered with gelatine. The next day the cells were incubated for 4 hours in a medium without serum and cultivated in RPMI 1640 medium (Life Technologies, Eragny, France) with the addition of 10% of foetal bovine serum (FBS) together with bFGF in PBS buffer (10 ng/ml) or PBS buffer alone.
The concentrations of HIV-PI used were the same as those present in plasma of treated patients (Deeks et al., 1997).

smooth muscle cells [2] = experiment: Cell growth assay of smooth muscle cells in response to bFGF; format: cell-based, human
Source text: (§1) Assays have been essentially performed as described in key to FIGS. 1 and 3. […] Data of duplicate experiments (mean) are shown.

smooth muscle cells [3] = experiment: Invasion assay of smooth muscle cells in response to bFGF; format: cell-based, human
Source text: as §1

MMP-2 = experiment: Gelatin zymography of supernatants from TPA-stimulated HUVEC; format: cell-based, human; details: TPA 50 nM; 8 hours; 10 μM
Procedure: HUVEC were cultivated for 24 hours in RPMI 1640 with the addition of 10% FBS. […] Aliquots of cell supernatants were then assayed for MMP-2 activity by gel zymography as described above. HT1080 is a tumour cell line secreting large amount of MMP-2 that was used as a control. […] The amount of supernatant analysed was normalised to the total cell number.

[4] = system: angiogenesis induced by bFGF or VEGF in the chorioallantoic membrane; details: for VEGF-induced angiogenesis, % of the untreated VEGF control / bFGF-induced angiogenesis, % of the untreated bFGF control / Average vessel (number/mm^2 ± SD): HIV-PI 10 μM; for basal CAM vascularization: drug administered alone; for toxicity in CAM: in vivo
Procedure: CAM assays were performed with 1 mm^3 sterilized gelatin sponges (Gelfoam; Upjohn Co, Kalamazoo, Mich.) adsorbed with bFGF or VEGF (1 μg or 100 ng, respectively) in 5 μl of PBS, and with buffer, HIV-PI (10 μM) or taxol (250 nM) (Bristol-Myers Squibb Co., Princeton, N.J.) as described (Ribatti et al, Int. J. Dev. Biol., 1996). CAM were examined daily until day 12 under an Olympus SZX9 stereomicroscope. Images (1024×1024 pixels) were captured at a distance of 2 mm from the edge of the sponge using a cooled digital CCD Hamamatsu ORCA camera (Hamamatsu Photonics Italia, Arese, Italy). Vessel number was quantified with the ImageProPlus 4.0 imaging software (Media Cybernetics, Silver Spring, Md.) in 3 randomly selected areas per egg ([…]).
Results are expressed as the average number of vessels/mm^2±SD from the indicated number of CAM per experimental condition.

KS cells [5] = experiment: KS cell adhesion to fibronectin; format: cell-based, human
KS cells [6] = experiment: KS cell migration, Boyden chamber, bFGF chemo-attractant; format: cell-based, human; details: 0.01 μM-1 μM, 5 days
Procedure: In contrast, both drugs inhibited KS cell capability of invading a matrigel substrate in a dose-dependent manner. In particular, both HIV-PI inhibit the invasion of KS cells by 30-40% (p<0.05) (Table 4 and FIG. 13).
Migration and invasion assays were carried out essentially as detailed in the key to FIGS. 2 and 3.

[7] = system: hepato-carcinoma (SK-Hep-1) cells; experiment: Invasion assay of SK-Hep-1 cells in response to bFGF; format: cell-based, human; details: 0.1, 1 or 10 μM
Procedure: The invasion assays were performed in the Boyden chamber. Polycarbonate filters ([…]; Nucleoprobe, Cabin John, Md.) were coated first with collagen IV and then with Matrigel (Collaborative Biomedical Products) as described previously (Barillari et al., 1999b). […] Human recombinant bFGF (50 ng/ml) was placed in the lower compartment as chemo-attractant. […] Louis, Mo.). Ten random filter fields were counted by light microscopy as described previously (Barillari et al., 1999b).

VEGF = VEGF production by KS cells (ELISA); format: cell-based, human; details: 0.1, 1 and 10 μM; 5 days + 24 hours
Procedure: After 24 hours of incubation, the supernatants of the cultures were tested by ELISA (R & D Systems, Minneapolis, Minn., USA) to determine the quantity of IL-6 present in the medium. The quantity of IL-6 is expressed in pg/ml of supernatant. The same tests were carried out for bFGF, VEGF, IL-1α and IL-1β by means of commercial ELISA kits.
KS cells secrete cytokines with an inflammatory, oedemigenic, angiogenic and proliferative activity with autocrine and paracrine effects (Ensoli and Stürzl, 1998). These factors mediate all the processes required for KS-like lesions formation (angiogenesis, cellular proliferation and invasion, inflammatory Infiltration, oedema) and vascular permeability and oedema induced by KS cells in nude mice. […] The quantity of bFGF, VEGF, IL-1 and IL-6 was dosed with immuno-enzymatic trials in the supernatants of the KS cells after 24 hours of culture in the absence of serum and in the continuous presence of the two HIV-PI (ELISA). […] Furthermore IL-6 plays a key role in the multicentric Cstleman's diseases and in the growth of lymphomas (Tosato et al., 1993; Peterson and Frizzera, 1993; Asou et al., 1998; Ramsay et al., 1994), another type of tumour whose incidence is reduced in patients treated with HIV-PI (International Collaboration on HIV and Cancer 2000).

casein-degrading MMPs = experiment: Casein zymography of supernatants from HUVEC treated with bFGF or TPA; format: cell-based, human; details: 10 μM; 8 or 24 hours
Procedure: FIG. 11. Saquinavir blocks the production of casein-degrading MMPs by endothelial cells. […] Aliquots of cell supernatants normalised to total cell number were then analysed for MMP activity by gel zymography as described above in gels containing casein (2 mg/ml) instead of gelatin.). Panel A: casein zymography performed with cell supernatants harvested after 8 hours of culture in the presence of TPA or bFGF; Panel B: casein zymography performed with cell supernatants harvested after 24 hours of culture in the presence of TPA or bFGF. Casein is specifically cleaved by stromelysins (MMP-3, MMP-10, MMP-11) and matrilysin (MMP-7) (Whittaker and Ayscough, 2001) This led to the appearance of destained areas due to caseinolytic activity present in cell supernatants.

[8] = system: vascular permeability and oedema induced by KS cells; experiment: Vascular permeability and oedema induced by KS cells in nude mice (Evans blue); format: in vivo
Procedure: As a control, each animal was inoculated controlaterally with the same volume of diluting buffer and Matrigel. After 18 hours the animals were sacrificed and the quantity of staining decanted in the inoculation site of the KS cells was measured at the level of the two largest perpendicular diameters by means of a gauge. The quantity of staining decanted was also assessed after taking skin from the inoculation site and quantified with the spectrophotometer after extraction with formamide for 24 hours at 56° C. […] The quantity of staining decanted was calculated after subtraction of the optical density measured on the control site.
After 12 hours the animals were sacrificed, the stained area present on the site of inoculation of the KS cells was measured with a caliper and the extravasated dye was extracted from tissues with formamide and measured by spectrophotometry (Nakamura, Science 1992).

Structure (SMILES): CC(C)(C)NC(=O)[C@@H]1CN(Cc2cccnc2)CCN1C[C@@H](O)C[C@@H](Cc1ccccc1)C(=O)N[C@H]1c2ccccc2C[C@H]1O [Indinavir, indinavir]
- survival of macrovascular endothelial cells [1]: no effect
- basal or bFGF-induced proliferation (number of cells) [1]: no effect
- proliferation in response to bFGF (smooth muscle cells [2]): do not interfere
- invasion in response to bFGF (smooth muscle cells [3]): inhibit
- total amount of MMP-2 released by cells in the presence of TPA (MMP-2): inhibited
- VEGF-induced angiogenesis, % of the untreated VEGF control [4]: 36%
- bFGF-induced angiogenesis, % of the untreated bFGF control [4]: 42%
- Average vessel (number/mm^2 ± SD) ([4]; VEGF 100 ng): 7.70 ± 2.52 number/mm^2
- Average vessel (number/mm^2 ± SD) ([4]; bFGF 1 μg, taxol 250 nM): 8.22 ± 2.54 number/mm^2
- basal CAM vascularization [4]: did not affect
- toxicity in CAM [4]: not associated with toxicity
- capability of the KS cells to adhere to a substrate of fibronectin (KS cells [5]): do not inhibit
- migration of KS cells (KS cells [6]): neither indinavir nor saquinavir had any effect
- invasive capacity in response to bFGF [7]: inhibit
- production of VEGF by KS cells (VEGF): reduced

Structure (SMILES): CC(C)(C)NC(=O)[C@@H]1C[C@@H]2CCCC[C@@H]2CN1C[C@@H](O)[C@H](Cc1ccccc1)NC(=O)[C@H](CC(N)=O)NC(=O)c1ccc2ccccc2n1 [Saquinavir, saquinavir]
- survival of macrovascular endothelial cells [1]: no effect
- basal or bFGF-induced proliferation (number of cells) [1]: no effect
- proliferation in response to bFGF (smooth muscle cells [2]): do not interfere
- invasion in response to bFGF (smooth muscle cells [3]): inhibit
- release of casein-degradation activity induced by bFGF or TPA (casein-degrading MMPs): inhibited
- VEGF-induced angiogenesis, % of the untreated VEGF control [4]: 11%
- bFGF-induced angiogenesis, % of the untreated bFGF control [4]: 19%
- Average vessel (number/mm^2 ± SD) ([4]; VEGF 100 ng): 5.39 ± 0.67 number/mm^2
- Average vessel (number/mm^2 ± SD) ([4]; bFGF 1 μg, taxol 250 nM): 6.08 ± 1.84 number/mm^2
- basal CAM vascularization [4]: did not affect
- toxicity in CAM [4]: not associated with toxicity
- capability of the KS cells to adhere to a substrate of fibronectin (KS cells [5]): do not inhibit
- migration of KS cells (KS cells [6]): neither indinavir nor saquinavir had any effect
- invasive capacity in response to bFGF [7]: inhibit
- reduction of the stained area (measurement with a gauge/caliper) [8]: 47.5%
- reduction of the amount of extravasated dye (spectrophotometer) ([8]; formamide extraction): 44.5%
- production of VEGF by KS cells (VEGF): reduced
